Laboratory results: US20210069356A1, “ISOTOPOLOGUES OF 2-(4-CHLOROPHENYL)-N-((2-(2,6-DIOXOPIPERIDIN-3-YL)-1-OXOISOINDOLIN-5-YL)METHYL)-2,2-DIFLUOROACETAMIDE” (Celgene Corporation, priority 2018, published 2021)

Key:
[1] = test system: KG-1 cell line; experiment: KG-1 cell proliferation, CellTiter-Glo assay; type: cell-based; conditions: Homo sapiens; KG-1 cells, 72 hours post-treatment; read-out: FCA Prolif Cell TiterGlo KG-1 72 h (IC50)
Method: (§1) The anti-proliferative activity of the test compounds was evaluated on KG-1 and KG-1a cell lines using CellTiter-Glo assay as described in U.S. Pat. No. 9,499,514 at 72 hours post-treatment.

[2] = test system: KG-1a cell line; experiment: KG-1a cell proliferation, CellTiter-Glo assay; type: cell-based; conditions: Homo sapiens; KG-1a cells, 72 hours post-treatment; read-out: FCA Prolif Cell TiterGlo KG-1a 72 h (IC50)
Method: as §1

| Compound | IC50 [1] [nM] | IC50 [2] [nM] |
| --- | --- | --- |
| [2H]c1cc(C(F)(F)C(=O)NCc2ccc3c(c2)CN(C2CCC(=O)NC2=O)C3=O)ccc1Cl (stereo not drawn) | 15.5 | 18.1 |
| [2H]c1cc(Cl)ccc1C(F)(F)C(=O)NCc1ccc2c(c1)CN(C1CCC(=O)NC1=O)C2=O (stereo not drawn) | 36.9 | 29.9 |
| [2H]c1c([2H])c(C(F)(F)C(=O)NCc2ccc3c(c2)CN(C2CCC(=O)NC2=O)C3=O)c([2H])c([2H])c1Cl (stereo not drawn) | 26.2 | 31.3 |
